The record followed here is the NIST ThermoML archive (doi:10.1021/je700384e).

For this series the following is noted: Crystal; DTA.

± gives the expanded uncertainty stated by the source.

On to `CC(F)F` [1,1-difluoroethane], for which the Triple point temperature turned out to be 154.3 ± 0.5 K.

For `O=C=O` [carbon dioxide], the Triple point temperature is given as 216.56 ± 0.5 K.

In the case of `[N-]=[N+]=O` [nitrous oxide], the Triple point temperature is 181.99 ± 0.5 K.
